Measured values: patent US5043328A, “Formulations containing unsaturated fatty acids for the synthesis of prostaglandins and hydroxy-fatty acids in biological systems” (priority 1986, dated 1991)
“Also recorded” adds a separate entry of the source. Like-named read-outs stand apart in the source and are kept apart here.

Tests used:
[1] = for undesired decomposition / byproducts of polyunsaturated fatty acid (arachidonic acid) with added stimulator: aqueous medium; for undesired decomposition / byproducts of polyunsaturated fatty acid (arachidonic acid) with added stimulator / effect of solvent used instead of water on formation of undesired byproducts: result in words; for effect of solvent used instead of water on formation of undesired byproducts: fatty acid with stimulator; for Stability (% of remaining arachidonic acid by Method 1): 24 h 37° C.; for Stabilization (% remaining unsaturated fatty acid by Method 1): 1440 min
Description: Method 1: Investigation of the Stability of Unsaturated Fatty Acids in the Formulations
The stabilizing action of substances on polyunsaturated fatty acids was investigated as follows:
Test A for Water-Soluble Substances:
0.125 mg of unsaturated fatty acid or Na salt (see tables) (sodium arachidonate, from Sigma, Munich, Germany) is dissolved in 0.05 ml of water. 0.2 ml of aqueous solution which contains 2 mg of stabilizer and can additionally contain 2 mg of stimulator is mixed in (cf. Table 1), 0.1 ml is then taken out immediately, extracted and analysed (see below). Further processing according to modification 1 or 2.
Modification 1 for Aqueous Solutions
After 24 hours incubation at 37° C., 0.1 ml is again taken, extracted and analysed (see below).
Modification 2 for Solid Mixtures (Lyophilisates)
The test solution is lyophilized, the lyophilisate is incubated for 24 hours at 37° C. and then dissolved again in the previous quantity of water, and 0.1 ml is taken, extracted and analysed (see below).
Test B for Water-Insoluble Substances:
0.125 mg of unsaturated fatty acid (arachidonic acid, 5,8,11,14,17-eicosapentaenoic acid or 8,11,14-eicosatrienoic acid, from Sigma, Munich) is dissolved in 0.05 ml of ethanol or dimethyl sulfoxide. 0.2 ml of ethanol (or dimethyl sulfoxide) which contains 2 mg of stabilizer and can additionally contain 2 mg of the stimulator (cf. Table 1) is added thereto, and 0.1 ml is taken immediately and, as below, extracted and analysed. Further treatment according to modification 1 or 2.
Modification 1 for Solutions
After 24 hours' incubation at 37° C., 0.1 ml is again taken, mixed with 0.1 ml of water, extracted and analysed.
Modification 2 for Solid Mixtures
The remaining solution is freed of solvent, incubated for 24 hours at 37° C. and then dissolved again in 0.15 ml of solvent, and 0.1 ml is taken, mixed with 0.1 ml of water, extracted and analysed.
0.05 ml of 1.2M aqueous citric acid solution is added to the samples obtained, and the samples are extracted with twice 0.5 ml of ethyl acetate, the ethyl acetate is removed from the combined extracts and the residue is dissolved in 0.8 ml of methanol and analysed by means of high-pressure liquid chromatography (HPLC) (Rad Pak C-18 column, 100×8 mm, from Waters, Konigstein, Germany, 1.5 ml/minute, solvent 800 ml of methanol, 200 ml of water and 0.1 ml of glacial acetic acid). The separation is monitored with a commercially available UV detector at 206 nm.
The prostaglandins PGE2, PGF2 alpha and PGD2 as products from arachidonic acid where quantified by means of method 2, and the sum was related as "total prostaglandin" to 100%. The quantity of "total prostaglandin" formed without the addition of a stimulator was set at f=1; the quantity formed after stimulation was related thereto. f=2 or f=3 therefore means twice or three times the stimulation under the conditions of method 2. The stability of the sample was investigated by means of method 1 (right-hand column). […] Values greater than 25-28% therefore represent a stabilization, and values smaller than 25-28% represent a destabilization. Example No. 1 was carried out without a stimulator.

[2] = molecular target: T1, enzyme (from seminal vesicles of sheep) (Ovis aries, UniProt P05979); settings: for PGD2 % / PGE2 % / PGF2alpha %: share of total prostaglandin (=100%)
T1 sequence (P05979 25-600): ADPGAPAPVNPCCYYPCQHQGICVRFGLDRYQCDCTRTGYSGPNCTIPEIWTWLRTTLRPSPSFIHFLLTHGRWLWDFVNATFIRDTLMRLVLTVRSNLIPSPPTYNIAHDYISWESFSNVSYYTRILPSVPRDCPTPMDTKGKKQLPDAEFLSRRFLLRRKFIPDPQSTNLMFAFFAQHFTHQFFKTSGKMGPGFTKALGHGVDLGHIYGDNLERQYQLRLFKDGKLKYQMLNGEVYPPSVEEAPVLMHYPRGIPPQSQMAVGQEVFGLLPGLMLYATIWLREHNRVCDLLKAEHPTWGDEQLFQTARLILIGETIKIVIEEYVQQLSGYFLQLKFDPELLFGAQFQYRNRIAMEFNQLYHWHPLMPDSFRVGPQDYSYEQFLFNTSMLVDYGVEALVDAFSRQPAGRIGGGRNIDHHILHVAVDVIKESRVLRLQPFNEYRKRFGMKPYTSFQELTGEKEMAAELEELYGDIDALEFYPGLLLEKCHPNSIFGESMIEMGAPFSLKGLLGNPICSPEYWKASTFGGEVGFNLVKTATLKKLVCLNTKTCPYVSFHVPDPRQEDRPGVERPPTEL
Description: Method 2: Prostaglandin Synthesis
0.3 ml of 0.03M potassium phosphate buffer of pH=8.0 contains 0.5 mg of enzyme (from seminal vesicles of sheep) (Biochemistry 10 (1971) 2372) or homogenate of the inner kidney medulla (Life Sciences 26 (1980) 765), 2.75 μg of ^14 C-arachidonic acid (0.5 μCi) and 0.5 mg of stimulator, and, if appropriate, 0.5 mg of stabilizer substance (see Table 1). After 10 minutes' incubation at 37° C., the reaction is stopped with 0.05 ml of 1.2M citric acid and the mixture is extracted with twice 0.5 ml of ethyl acetate, the combined extracts are freed of solvent, and the residue is dissolved in 0.2 ml of methanol, diluted 1:1 with water and separated by HPLC (nucleosil C-18 column, 125×4.6 mm, from Bischoff, Leonberg, Germany, solvent 300 ml of acetonitrile, 700 ml of water and 1 ml of glacial acetic acid and after 30 minutes pure methanol). The separation of the radioactive fractions is followed by a monitor (LB 504 from Berthold, Wildbad, Germany). The products formed, such as 6-keto-prostaglandin F2alpha, prostaglandin E2, prostaglandin F2alpha and prostaglandin D2, are separated under these conditions.
The prostaglandins PGE2, PGF2 alpha and PGD2 as products from arachidonic acid where quantified by means of method 2, and the sum was related as "total prostaglandin" to 100%. The quantity of "total prostaglandin" formed without the addition of a stimulator was set at f=1; the quantity formed after stimulation was related thereto. f=2 or f=3 therefore means twice or three times the stimulation under the conditions of method 2. The stability of the sample was investigated by means of method 1 (right-hand column). […] Values greater than 25-28% therefore represent a stabilization, and values smaller than 25-28% represent a destabilization. Example No. 1 was carried out without a stimulator. […] The substances test with respect to stabilization (see Method 1 for quantities) were: A) aqueous solution without stabilizer addition, B) ethanolic solution without further addition, C) pyridine solution, D) with rutin, predissolved in dimethyl sulfoxide, dimethyl sulfoxide then stripped off, E) like B) with lecithin, ethanol stripped off, F) like A) with cytochrome c from horse heart (from Boehringer, Mannheim, Germany), G) like A) with methemoglobin (human) (from Sigman, Munich, Germany), H) like A) with bovine serum albumin (from Calbiochem, Frankfurt, Germany), J) like A) or B), but solvent stripped off, K) like J) with cytochrome c, L) like J) with hemoglobin (human) (from Behringwerke, Marburg, Germany), and M) like J) with human serum albumin (from Behringwerke, Marburg, Germany).

[3] = A) aqueous solution without stabilizer addition
[4] = B) ethanolic solution without further addition
[5] = J) like A) or B), but solvent stripped off
[6] = M) like J) with human serum albumin
[7] = H) like A) with bovine serum albumin

Compound: N[C@@H](Cc1c[nH]c2ccc(O)cc12)C(=O)O [5-hydroxytryptophan, reference compound]
- undesired decomposition / byproducts of polyunsaturated fatty acid (arachidonic acid) with added stimulator [1]: considerably accelerated

Compound: CCC(C)O (stereo not drawn) [Example 2-butanol, 2-butanol]
- effect of solvent used instead of water on formation of undesired byproducts [1]: additional destabilizing effect

Compound: NC(Cc1ccc(O)cc1)C(=O)O (stereo not drawn) [Example 6]
- Stability (% of remaining arachidonic acid by Method 1) [1, 3]: 91%
- Stability (% of remaining arachidonic acid by Method 1) [1, 4]: 100%
- Stability (% of remaining arachidonic acid by Method 1) ([1]; C) pyridine solution): 67%
- Stability (% of remaining arachidonic acid by Method 1) [1, 5]: 98%
- Stability (% of remaining arachidonic acid by Method 1) ([1]; K) like J) with cytochrome c): 100%
- Stability (% of remaining arachidonic acid by Method 1) [1, 6]: 100%
- PGD2 % ([2]; Table 1): 17%
- PGE2 % ([2]; Table 1): 81%
- PGF2alpha % ([2]; Table 1): 2%

Compound: NCCc1ccc(O)c(O)c1 [Example 10]
- Stability (% of remaining arachidonic acid by Method 1) [1, 3]: 17%
- Stability (% of remaining arachidonic acid by Method 1) [1, 4]: 95%
- Stability (% of remaining arachidonic acid by Method 1) ([1]; C) pyridine solution): 9%
- Stability (% of remaining arachidonic acid by Method 1) [1, 7]: 100%
- Stability (% of remaining arachidonic acid by Method 1) ([1]; K) like J) with cytochrome c): 98%
- Stability (% of remaining arachidonic acid by Method 1) [1, 6]: 100%
- PGD2 % ([2]; Table 1): 13%
- PGE2 % ([2]; Table 1): 52%
- PGF2alpha % ([2]; Table 1): 35%

Compound: CC(=O)NC(Cc1ccc(O)cc1)C(N)=O (stereo not drawn) [Example 11]
- Stabilization [1]: positive
- Stimulation ([2]; Table 1, result in words): positive

Compound: O=C(O)C=Cc1ccc(O)c(O)c1 [Example 17]
- Stability (% of remaining arachidonic acid by Method 1) [1, 3]: 19%
- Stability (% of remaining arachidonic acid by Method 1) ([1]; D) with rutin, predissolved in dimethyl sulfoxide, dimethyl sulfoxide then stripped off): 99%
- Stability (% of remaining arachidonic acid by Method 1) ([1]; G) like A) with methemoglobin (human)): 95%
- Stability (% of remaining arachidonic acid by Method 1) [1, 7]: 99%
- Stability (% of remaining arachidonic acid by Method 1) [1, 5]: 16%
- Stability (% of remaining arachidonic acid by Method 1) [1, 6]: 98%
- PGD2 % ([2]; Table 1): 17%
- PGE2 % ([2]; Table 1): 70%
- PGF2alpha % ([2]; Table 1): 13%
- relative total prostaglandin f ([2]; seminal vesicle enzyme, 10 min, pH 8): 5.7

Compound: OC[C@H]1O[C@@H]2O[C@H]3[C@H](O)[C@@H](O)[C@@H](O[C@H]4[C@H](O)[C@@H](O)[C@@H](O[C@H]5[C@H](O)[C@@H](O)[C@@H](O[C@H]6[C@H](O)[C@@H](O)[C@@H](O[C@H]7[C@H](O)[C@@H](O)[C@@H](O[C@H]1[C@H](O)[C@H]2O)O[C@@H]7CO)O[C@@H]6CO)O[C@@H]5CO)O[C@@H]4CO)O[C@@H]3CO [Example 62, alpha-Dextrin (Cyclohexaamylose)]
- Stabilization (% remaining unsaturated fatty acid by Method 1) [1]: 60%

Compound: OC[C@H]1O[C@@H]2O[C@H]3[C@H](O)[C@@H](O)[C@@H](O[C@H]4[C@H](O)[C@@H](O)[C@@H](O[C@H]5[C@H](O)[C@@H](O)[C@@H](O[C@H]6[C@H](O)[C@@H](O)[C@@H](O[C@H]7[C@H](O)[C@@H](O)[C@@H](O[C@H]8[C@H](O)[C@@H](O)[C@@H](O[C@H]9[C@H](O)[C@@H](O)[C@@H](O[C@H]1[C@H](O)[C@H]2O)O[C@@H]9CO)O[C@@H]8CO)O[C@@H]7CO)O[C@@H]6CO)O[C@@H]5CO)O[C@@H]4CO)O[C@@H]3CO [Example 64, gamma-Dextrin (Cyclooctaamylose)]
- Stabilization (% remaining unsaturated fatty acid by Method 1) [1]: 75%

Compound: CNCC(O)c1ccc(O)c(O)c1 (stereo not drawn) [adrenalin, reference compound]
- undesired decomposition / byproducts of polyunsaturated fatty acid (arachidonic acid) with added stimulator [1]: considerably accelerated

Compound: CCCCC/C=C\C/C=C\C/C=C\C/C=C\CCCC(=O)O [arachidonic acid]
- Stability (% of remaining arachidonic acid by Method 1) [1, 3]: 25-28%

Compound: C[S+](C)[O-] [dimethyl sulfoxide]
- effect of solvent used instead of water on formation of undesired byproducts [1]: do not arise

Compound: CCO [ethanol]
- effect of solvent used instead of water on formation of undesired byproducts [1]: do not arise

Compound: O=C[C@H](O)[C@@H](O)[C@H](O)[C@H](O)CO [glucose, reference compound]
- stabilization of aqueous mixtures of unsaturated fatty acid and stimulators [1]: not stabilizing

Compound: OCC(O)CO [glycerol]
- effect of solvent used instead of water on formation of undesired byproducts [1]: do not arise

Compound: Oc1ccc(O)cc1 [hydroquinone, reference compound]
- undesired decomposition / byproducts of polyunsaturated fatty acid (arachidonic acid) with added stimulator [1]: markedly greater quantity; also recorded: considerably accelerated

Compound: NC[C@H](O)c1ccc(O)c(O)c1 [noradrenalin, reference compound]
- undesired decomposition / byproducts of polyunsaturated fatty acid (arachidonic acid) with added stimulator [1]: considerably accelerated

Compound: c1ccncc1 [pyridine]
- effect of solvent used instead of water on formation of undesired byproducts [1]: additional destabilizing effect

Compound: OC[C@@H](O)[C@@H](O)[C@H](O)[C@@H](O)CO [sorbitol, reference compound]
- stabilization of aqueous mixtures of unsaturated fatty acid and stimulators [1]: not stabilizing

Compound: N[C@@H](Cc1c[nH]c2ccccc12)C(=O)O [tryptophan, reference compound]
- undesired decomposition / byproducts of polyunsaturated fatty acid (arachidonic acid) with added stimulator [1]: considerably accelerated

Compound: N[C@@H](Cc1ccc(O)cc1)C(=O)O [tyrosine]
- undesired decomposition / byproducts of polyunsaturated fatty acid (arachidonic acid) with added stimulator [1]: completely stable

Compound: polyethylene glycol
- effect of solvent used instead of water on formation of undesired byproducts [1]: do not arise

Compound: rhamnoglucose [reference compound]
- stabilization of aqueous mixtures of unsaturated fatty acid and stimulators [1]: not stabilizing
